Measurements: US20200187502A1, “MICROBIOCIDAL OXADIAZOLE DERIVATIVES” (SYNGENTA PARTICIPATIONS AG, priority 2017, published 2020)

Key:
[1] = system: Glomerella lacenarium (Colletotrichum lacenarium); assay: Fungicidal activity, liquid culture, cucumber preventative (anthracnose); format: cell-based; conditions: 20 ppm in the applied formulation, liquid culture in PDB, inhibition of growth measured photometrically 3 to 4 days after application, compared to untreated control, read-out: disease control
Experimental: Mycelia fragments or conidia suspensions of a fungus prepared either freshly from liquid cultures of the fungus or from cryogenic storage, are directly mixed into nutrient broth. DMSO solutions of the test compound (max. 10 mg/ml) are diluted with 0.025% Tween20 by a factor of 50 and 10 μl of this solution is pipetted into a microtiter plate (96-well format). The nutrient broth containing the fungal spores/mycelia fragments is then added to give an end concentration of the tested compound. The test plates are incubated in the dark at 24° C. and 96% relative humidity. The inhibition of fungal growth is determined photometrically after 2 to 7 days, depending on the pathosystem, and percent antifungal activity relative to the untreated check is calculated.
Conidia of the fungus from cryogenic storage are directly mixed into nutrient broth (PDB—potato dextrose broth). After placing a (DMSO) solution of test compound into a microtiter plate (96-well format), the nutrient broth containing the fungal spores is added. The test plates are incubated at 24° C. and the inhibition of growth is measured photometrically 3 to 4 days after application.
The following compounds at 20 ppm in the applied formulation give at least 80% disease control in this test when compared to untreated control under the same conditions, which show extensive disease development.

[2] = system: Puccinia recondita f. Sp. Tritici; assay: Fungicidal activity, wheat leaf disc preventative (brown rust); format: in vivo; conditions: foliar, 200 ppm in the applied formulation, wheat leaf segments cv. Kanzler, compared to untreated control, 7 to 9 days after application, read-out: disease control
Experimental: Leaf disks or leaf segments of various plant species are cut from plants grown in a greenhouse. The cut leaf disks or segments are placed in multiwell plates (24-well format) onto water agar. The leaf disks are sprayed with a test solution before (preventative) or after (curative) inoculation. Compounds to be tested are prepared as DMSO solutions (max. 10 mg/ml) which are diluted to the appropriate concentration with 0.025% Tween20 just before spraying. The inoculated leaf disks or segments are incubated under defined conditions (temperature, relative humidity, light, etc.) according to the respective test system. A single evaluation of disease level is carried out 3 to 14 days after inoculation, depending on the pathosystem. Percent disease control relative to the untreated check leaf disks or segments is then calculated.
Wheat leaf segments cv. Kanzler were placed on agar in multiwell plates (24-well format) and sprayed with the formulated test compound diluted in water. The leaf disks were inoculated with a spore suspension of the fungus 1 day after application. The inoculated leaf segments were incubated at 19° C. and 75% relative humidity (rh) under a light regime of 12 hours light/12 hours darkness in a climate cabinet and the activity of a compound was assessed as percent disease control compared to untreated when an appropriate level of disease damage appears in untreated check leaf segments (7 to 9 days after application).
The following compounds at 200 ppm in the applied formulation give at least 80% disease control in this test when compared to untreated control leaf disks under the same conditions, which show extensive disease development.

## CN(Cc1ccc(-c2noc(C(F)(F)F)n2)s1)C(=O)C(=O)Cc1ccccc1 [Compound 6.50, N-methyl-2-oxo-3-phenyl-N-[[5-[5-(trifluoromethyl)-1,2,4-oxadiazol-3-yl]-2-thienyl]methyl]propanamide]
[1]
  inhibition of growth at 20 ppm: ≥ 80%
[2]
  pest or weed control at 200 ppm: ≥ 80%

## O=C(C(=O)N(Cc1ccc(-c2noc(C(F)(F)F)n2)s1)OCC(F)F)c1ccccc1 [Compound 6.61, N-(2,2-difluoroethoxy)-2-oxo-2-phenyl-N-[[5-[5-(trifluoromethyl)-1,2,4-oxadiazol-3-yl]-2-thienyl]methyl]acetamide]
[1]
  inhibition of growth at 20 ppm: ≥ 80%
[2]
  pest or weed control at 200 ppm: ≥ 80%

## O=C(C(=O)N(Cc1ccc(-c2noc(C(F)(F)F)n2)s1)C1CC1)c1ccco1 [Compound 6.60, N-cyclopropyl-2-(2-furyl)-2-oxo-N-[[5-[5-(trifluoromethyl)-1,2,4-oxadiazol-3-yl]-2-thienyl]methyl]acetamide]
[1]
  inhibition of growth at 20 ppm: ≥ 80%
[2]
  pest or weed control at 200 ppm: ≥ 80%

## O=S(=O)(C1CC1)N(Cc1ccc(-c2noc(C(F)(F)F)n2)s1)C1CC1 [Compound 6.38, N-cyclopropyl-N-[[5-[5-(trifluoromethyl)-1,2,4-oxadiazol-3-yl]-2-thienyl]methyl]cyclopropanesulfonamide]
[1]
  inhibition of growth at 20 ppm: ≥ 80%
[2]
  pest or weed control at 200 ppm: ≥ 80%

## CON(Cc1ccc(-c2noc(C(F)(F)F)n2)s1)S(=O)(=O)N(C)C [Compound 1.43, N-(dimethylsulfamoyl)-N-methoxy-1-[5-[5-(trifluoromethyl)-1,2,4-oxadiazol-3-yl]-2-thienyl]methanamine]
[1]
  inhibition of growth at 20 ppm: ≥ 80%
[2]
  pest or weed control at 200 ppm: ≥ 80%

## COC(=O)N(Cc1ccc(-c2noc(C(F)(F)F)n2)s1)OC [Compound 1.5, methyl N-methoxy-N-[[5-[5-(trifluoromethyl)-1,2,4-oxadiazol-3-yl]-2-thienyl]methyl]carbamate]
[1]
  inhibition of growth at 20 ppm: ≥ 80%
[2]
  pest or weed control at 200 ppm: ≥ 80%

## CON(Cc1ccc(-c2noc(C(F)(F)F)n2)s1)S(=O)(=O)c1ccn(C)n1 [Compound 1.33, N-methoxy-1-methyl-N-[[5-[5-(trifluoromethyl)-1,2,4-oxadiazol-3-yl]-2-thienyl]methyl]pyrazole-3-sulfonamide]
[1]
  inhibition of growth at 20 ppm: ≥ 80%
[2]
  pest or weed control at 200 ppm: ≥ 80%

## CCS(=O)(=O)N(C)Cc1ccc(-c2noc(C(F)(F)F)n2)s1 [Compound 6.25, N-methyl-N-[[5-[5-(trifluoromethyl)-1,2,4-oxadiazol-3-yl]-2-thienyl]methyl]ethanesulfonamide]
[1]
  inhibition of growth at 20 ppm: ≥ 80%
[2]
  pest or weed control at 200 ppm: ≥ 80%

## O=C(CC(F)(F)F)N(Cc1ccc(-c2noc(C(F)(F)F)n2)s1)C1CC1 [Compound 4.60, N-cyclopropyl-3,3,3-trifluoro-N-[[5-[5-(trifluoromethyl)-1,2,4-oxadiazol-3-yl]-2-thienyl]methyl]propanamide]
[1]
  inhibition of growth at 20 ppm: ≥ 80%
[2]
  pest or weed control at 200 ppm: ≥ 80%

## CC(C)CC(=O)C(=O)N(Cc1ccc(-c2noc(C(F)(F)F)n2)s1)C1CC1 [Compound 6.58, N-cyclopropyl-4-methyl-2-oxo-N-[[5-[5-(trifluoromethyl)-1,2,4-oxadiazol-3-yl]-2-thienyl]methyl]pentanamide]
[1]
  inhibition of growth at 20 ppm: ≥ 80%
[2]
  pest or weed control at 200 ppm: ≥ 80%

## COCC(=O)N(C)Cc1ccc(-c2noc(C(F)(F)F)n2)s1 [Compound 4.32, 2-methoxy-N-methyl-N-[[5-[5-(trifluoromethyl)-1,2,4-oxadiazol-3-yl]-2-thienyl]methyl]acetamide]
[1]
  inhibition of growth at 20 ppm: ≥ 80%
[2]
  pest or weed control at 200 ppm: ≥ 80%

## CCN(Cc1ccc(-c2noc(C(F)(F)F)n2)s1)C(=O)C(=O)CC(C)C [Compound 6.44, N-ethyl-4-methyl-2-oxo-N-[[5-[5-(trifluoromethyl)-1,2,4-oxadiazol-3-yl]-2-thienyl]methyl]pentanamide]
[1]
  inhibition of growth at 20 ppm: ≥ 80%
[2]
  pest or weed control at 200 ppm: ≥ 80%

## O=C(C1CCCO1)N(Cc1ccc(-c2noc(C(F)(F)F)n2)s1)OCC(F)F (centres unmarked) [Compound 5.49, N-(2,2-difluoroethoxy)-N-[[5-[5-(trifluoromethyl)-1,2,4-oxadiazol-3-yl)-2-thienyl]methyl]tetrahydrofuran-2-carboxamide]
[1]
  inhibition of growth at 20 ppm: ≥ 80%
[2]
  pest or weed control at 200 ppm: ≥ 80%

## CON(Cc1ccc(-c2noc(C(F)(F)F)n2)s1)C(=O)c1ccccc1Cl [Compound 1.20, 2-chloro-N-methoxy-N-[[5-[5-(trifluoromethyl)-1,2,4-oxadiazol-3-yl]-2-thienyl]methyl]benzamide]
[1]
  inhibition of growth at 20 ppm: ≥ 80%
[2]
  pest or weed control at 200 ppm: ≥ 80%

## O=C(C(=O)N(Cc1ccc(-c2noc(C(F)(F)F)n2)s1)C1CC1)c1ccccc1 [Compound 6.54, N-cyclopropyl-2-oxo-2-phenyl-N-[[5-[5-(trifluoromethyl)-1,2,4-oxadiazol-3-yl]-2-thienyl]methyl]acetamide]
[1]
  inhibition of growth at 20 ppm: ≥ 80%
[2]
  pest or weed control at 200 ppm: ≥ 80%

## O=C(C1CCC1)N(Cc1ccc(-c2noc(C(F)(F)F)n2)s1)OCC(F)F [Compound 5.47, N-(2,2-difluoroethoxy)-N-[[5-[5-(trifluoromethyl)-1,2,4-oxadiazol-3-yl]-2-thienyl]methyl]cyclobutanecarboxamide]
[1]
  inhibition of growth at 20 ppm: ≥ 80%
[2]
  pest or weed control at 200 ppm: ≥ 80%

## CC(C)(C)C(=O)C(=O)N(Cc1ccc(-c2noc(C(F)(F)F)n2)s1)C1CC1 [Compound 6.55, N-cyclopropyl-3,3-dimethyl-2-oxo-N-[[5-[5-(trifluoromethyl)-1,2,4-oxadiazol-3-yl]-2-thienyl]methyl]butanamide]
[1]
  inhibition of growth at 20 ppm: ≥ 80%
[2]
  pest or weed control at 200 ppm: ≥ 80%

## COCCS(=O)(=O)N(Cc1ccc(-c2noc(C(F)(F)F)n2)s1)C1CC1 [Compound 6.32, N-cyclopropyl-2-methoxy-N-[[5-[5-(trifluoromethyl)-1,2,4-oxadiazol-3-yl]-2-thienyl]methyl]ethanesulfonamide]
[1]
  inhibition of growth at 20 ppm: ≥ 80%
[2]
  pest or weed control at 200 ppm: ≥ 80%

## CCS(=O)(=O)N(Cc1ccc(-c2noc(C(F)(F)F)n2)s1)C1CC1 [Compound 6.35, N-cyclopropyl-N-[[5-[5-(trifluoromethyl)-1,2,4-oxadiazol-3-yl]-2-thienyl]methyl]ethanesulfonamide]
[1]
  inhibition of growth at 20 ppm: ≥ 80%
[2]
  pest or weed control at 200 ppm: ≥ 80%

## CON(Cc1ccc(-c2noc(C(F)(F)F)n2)s1)S(=O)(=O)C1CC1 [Compound 1.37, N-methoxy-N-[[5-[5-(trifluoromethyl)-1,2,4-oxadiazol-3-yl]-2-thienyl]methyl]cyclopropanesulfonamide]
[1]
  inhibition of growth at 20 ppm: ≥ 80%
[2]
  pest or weed control at 200 ppm: ≥ 80%

## CCN(Cc1ccc(-c2noc(C(F)(F)F)n2)s1)C(=O)C(=O)c1cccs1 [Compound 6.45, N-ethyl-2-oxo-2-(2-thienyl)-N-[[5-[5-(trifluoromethyl)-1,2,4-oxadiazol-3-yl]-2-thienyl]methyl]acetamide]
[1]
  inhibition of growth at 20 ppm: ≥ 80%
[2]
  pest or weed control at 200 ppm: ≥ 80%

## CCCS(=O)(=O)N(Cc1ccc(-c2noc(C(F)(F)F)n2)s1)C1CC1 [Compound 6.39, N-cyclopropyl-N-[[5-[5-(trifluoromethyl)-1,2,4-oxadiazol-3-yl]-2-thienyl]methyl]propane-1-sulfonamide]
[1]
  inhibition of growth at 20 ppm: ≥ 80%
[2]
  pest or weed control at 200 ppm: ≥ 80%

## CCN(Cc1ccc(-c2noc(C(F)(F)F)n2)s1)S(=O)(=O)Cc1ccccc1 [Compound 6.13, N-ethyl-1-phenyl-N-[[5-[5-(trifluoromethyl)-1,2,4-oxadiazol-3-yl]-2-thienyl]methyl]methanesulfonamide]
[1]
  inhibition of growth at 20 ppm: ≥ 80%
[2]
  pest or weed control at 200 ppm: ≥ 80%

## O=C(CC1CC1)N(Cc1ccc(-c2noc(C(F)(F)F)n2)s1)OCC(F)F [Compound 5.45, 2-cyclopropyl-N-(2,2-difluoroethoxy)-N-[[5-[5-(trifluoromethyl)-1,2,4-oxadiazol-3-yl]-2-thienyl]methyl]acetamide]
[1]
  inhibition of growth at 20 ppm: ≥ 80%
[2]
  pest or weed control at 200 ppm: ≥ 80%

## O=C(C(=O)N(Cc1ccc(-c2noc(C(F)(F)F)n2)s1)OCC(F)F)c1ccco1 [Compound 6.64, N-(2,2-difluoroethoxy)-2-(2-furyl)-2-oxo-N-[[5-[5-(trifluoromethyl)-1,2,4-oxadiazol-3-yl]-2-thienyl]methyl]acetamide]
[1]
  inhibition of growth at 20 ppm: ≥ 80%
[2]
  pest or weed control at 200 ppm: ≥ 80%
